Measured values taken from PMC4155245, “Clostridium difficile has a single sortase, SrtB, that can be inhibited by small-molecule inhibitors” (BMC Microbiology, 2014).
Read-outs that look alike come from different tables or passages of the source.

Molecular target: T1, SrtB (sortase B, CD630_27180) (Clostridioides difficile, UniProt Q183F3)
T1 construct: SrtBΔN26 (N-terminal transmembrane residues 2–25 replaced with a six-histidine tag)
Assay: FRET peptide cleavage assay (d-PVPPKTGDS-e) with purified recombinant SrtBΔN26
Assay type: biochemical

T1 sequence (Q183F3 entry or part of it): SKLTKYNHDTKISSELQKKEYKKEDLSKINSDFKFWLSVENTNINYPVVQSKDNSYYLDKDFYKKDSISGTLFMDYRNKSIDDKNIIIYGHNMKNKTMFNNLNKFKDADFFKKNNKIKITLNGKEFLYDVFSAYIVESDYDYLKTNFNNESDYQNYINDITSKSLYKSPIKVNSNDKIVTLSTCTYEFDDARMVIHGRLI

| Compound | IC50 | IC50 (read-out: IC50) |
| --- | --- | --- |
| C[N+](C)(C)CCSS(C)(=O)=O [MTSET, 2-(trimethylamonium)ethylmethanethiosulfonate] | 287 ± 16.6 µM |  |
| LSHTM-0040 [LSHTM40] |  | 63.1 ± 8.8 µM |
| LSHTM-0050 [LSHTM50] |  | 60.1 ± 4.7 µM |
| LSHTM-0052 [LSHTM52] |  | 44.1 ± 6.9 µM |
